From patent US11400137B2, “Rectal insulin for treatment of inflammatory bowel diseases” (University of Copenhagen, priority 2016, dated 2022)
“Also recorded” adds a separate entry of the source. Where two headings read alike, the source gives them in different places.

Tests used:
COX2 mRNA = COX2 mRNA expression in colons of mice with AOM+DSS induced inflammation; assay type: in vivo, mouse
From the text: Cyclooxygenase 2 (COX2/PTGS2) catalyzes the first step in the synthesis of the inflammatory mediators, the prostaglandins, from arachidonic acid. The expression of COX2 is increased in the colonic epithelial cells from patients with active colonic CD and UC and is therefore a biomarker for colonic inflammation in IBD.

colonic epithelial cells = tested on: colonic epithelial cells
From the text: Sections of mouse colons from INSR KO mice and INSR Flox mice were stained with an antibody against the proliferation marker Ki67. Thereafter, sections of inflamed (DSS induced) colons obtained from C57BL6 mice treated with either PBS, 2 u or 6 units/kg insulin were also stained with an antibody directed against the Ki67 proliferation marker and the number of KI67 positive cells per crypt counted.

Car3 mRNA = Car3 mRNA expression in colons during AOM+DSS induced intestinal inflammation; assay type: in vivo, mouse
From the text: On the contrary, in the INSR KO mice with inactivated insulin receptor in the intestinal epithelial cells the expression of Car3 was not increased by inflammation. Therefore it was investigated whether Car3 is a target for intestinal insulin signalling. The methodology described in Example 2 was followed.

[1] = Description: C57BL6 mice were treated with 3% DSS in their drinking water. At the peak of inflammation, the mice were treated with rectal insulin and the blood glucose concentration measured at 0, 15, 30, 60, 90, 120 and 240 minutes. Anaesthesia was induced after the first measurement was taken at time point zero. Anaesthesia was complete at time point 15 minutes and rectal insulin instillation or PBS control instillation also begun at time point 15 minutes.
insulin receptor mRNA = assay: Colonic crypts cultured as organoids with and without insulin; assay type: cell-based; conditions: insulin added to organoid medium vs none (FIG. 8)
Description: To investigate the effect of insulin on isolated colonic epithelial cells, colonic crypts were cultured as organoids with and without the addition of insulin to the medium. […] Several mechanisms are possible. First it is possible that insulin induces differentiation of the epithelial cells and that this process increases […]. Alternatively the insulin receptor may directly stimulate its own mRNA expression by yet undescribed mechanisms. The finding is important because the positive feedback loop is expected to prolong the duration of the insulin effect on the colonic mucosa.

[2] = tested on: mice with DSS induced colitis (AOM+DSS); assay: AOM+DSS colitis/carcinogenesis model, rectal insulin intervention study (2% DSS); assay type: in vivo, mouse
From the text: In the azoxymethane and dextran sulphate sodium (AOM/DSS) carcinogenesis/colitis model, colitis is induced by DSS which promotes AOM induced tumours. This AOM/DSS model was used on mice having intestinal specific inactivation of the insulin receptor. These mice were obtained by crossing mice (B6.129S4(FVB)-Insrtm1Khn/J) with loxP sites flanking exon 4 in the insulin receptor gene with mice (B6.Cg-Tg(Vil-cre)997Gum/J) expressing the cre-recombinase under the villin promoter (both mice were obtained commercially from the Jackson Laboratory).
The discovery that inactivated insulin signalling in the intestine augments inflammation and stimulates development of inflammation induced tumours, prompted us to the invention that insulin might be used to treat colitis. This was investigated in an intervention study. Thus, wild type mice were set up in the AOM+DSS regime and divided into two groups. One group of mice was treated with rectal administration of insulin while the control group was treated with vehicle (phosphate buffered saline; PBS).
(§1) The insulin treatment regime was as follows: Each day during DSS treatment and the following first 4 days during remission (no DSS treatment) the mice were anaesthetized with isoflurane and 600 μl PBS or PBS+0.06 units human insulin was injected intra rectally. For the injection, a syringe fitted with a flexible silicone feeding needle (for rodents) was used. The mice were placed on their back with the lower end elevated for 10 minutes while still in isoflurane anaesthesia. After recovery from anaesthesia the mice were returned to their cages. The mice were weighed daily and signs of rectal bleeding scored.

[3] = tested on: mice with DSS induced colitis (AOM+DSS); assay: AOM+DSS + rectal insulin dose-response experiment (3% DSS); assay type: in vivo, mouse
Description: as §1
In this experiment 3% DSS was used as opposed to 2% DSS in the previous experiment (FIG. 3). During induction of inflammation there is a significant (FIG. 6, t-test, p<0.05) effect of the administration of 6 u/kg insulin whereas there is no effect of only 2 u/kg administration. Specifically the weight loss (weight at the end of DSS treatment−the weight at the beginning of the DSS treatment) is 16% less in the 6 u/kg insulin group compared to the PBS group (4.3 g in the PBS group versus 3.6 g in the 6 u/kg insulin group; see FIG. 5.

[4] = 6 u/kg insulin, p<0.05 vs PBS, Fischer's exact test

With insulin the “COX2 mRNA expression in colon” value (COX2 mRNA; 2 u/kg rectal insulin) was “significantly reduce”, the “COX2 mRNA expression in colon” value (COX2 mRNA; 6 u/kg rectal insulin) was “significantly reduce” and the “Ki67 positive cells per crypt, staining pattern vs PBS” value (colonic epithelial cells; 2 u/kg rectal insulin) was “No significant difference”. For the same substance, the “Ki67 positive cells per crypt, staining pattern vs PBS” value (colonic epithelial cells; 6 units/kg rectal insulin) was “No significant difference”, the “Car3 mRNA expression in colon” value (Car3 mRNA; 2 u/kg rectal insulin) was “not” and the “Car3 mRNA expression in colon” value (Car3 mRNA; 6 u/kg rectal insulin) was “significantly increased”. For the same substance, the “blood glucose concentration vs PBS control” value ([1]; 3% DSS, peak of inflammation, 0-240 minutes, rectal insulin) was “No significant difference”, the “systemic uptake of insulin following rectal instillation” value ([1]; inferred from blood glucose) was “negligible” and the “concentration of insulin receptor mRNA” value (insulin receptor mRNA) was “increased almost two-fold”. The “weight loss from DSS start (day 1) to beginning of remission (day 8)” value ([2]; 2% DSS, 0.06 units human insulin in 600 μl PBS intra rectally daily, PBS group 2.56 g, t-test p<0.05) was 1.68 g, the “mice with tumours with a size greater than 2 mm” value ([2]; PBS group 1.3 >2 mm tumours per mouse, p<0.05) was 0 mice and the “mice showing signs of rectal bleeding during treatment” value ([2]; all PBS mice showed bleeding, p<0.05) was “two”. The “inflammation score by colonoscopy, late remission phase” value ([2]; blinded scoring of endoscopy videos, vs PBS) was “significant lower (and better) inflammation score; also recorded: improves inflammation score”, the “body weight course (FIG. 3)” value ([2]; daily rectal recombinant human insulin 2 units/kg) was “re-gained weight” and the “Rectal bleeding: No bleeding (number of mice)” value ([3]; 2 u/kg insulin, PBS group 4) was 8. For the same substance, the “Rectal bleeding: Bleeding (number of mice)” value ([3]; 2 u/kg insulin, PBS group 9) was 3, the “weight increase in remission phase, day 8 to day 11” value ([3]; 3% DSS, 2 and 6 u/kg rectal insulin (FIG. 7)) was “dose-dependent increase in weight” and the “effect on weight loss during induction of inflammation” value ([3]; 3% DSS, 2 u/kg rectal insulin) was “no effect”. For the same substance, the “weight loss less than in the PBS group” value ([3]; 3% DSS, 6 u/kg rectal insulin) was 16%, the “weight loss (weight at end of DSS treatment − weight at beginning)” value ([3]; 3% DSS, 6 u/kg rectal insulin, PBS group 4.3 g, p<0.05) was 3.6 g and the “Rectal bleeding: Bleeding (number of mice)” value [3, 4] was 3. The “Rectal bleeding: No bleeding (number of mice)” value [3, 4] was 12.
